What is called IC50 is the concentration at which inhibition is half-maximal. High values mean weaker potency, low ones greater potency.

Here are results for 2 compounds from publication PMC8110993, “Structure and antimicrobial activity of NCR169, a nodule-specific cysteine-rich peptide of Medicago truncatula” (Scientific Reports, 2021).

The format of data set [1] is physicochemical. The following applies: pH 2.2. How it is done:
We further measured the circular dichroism (CD) spectra of NCR169-ox1 and -ox2 under various pH conditions to confirm their structural stability against pH (Supplementary Fig. S4). […] Because acidic pH is preferable for amide proton detection in NMR experiments, we performed the following solution NMR study at lower pH.
CD spectra were recorded within a wavelength range of 270–195 nm using a JASCO J-820 spectropolarimeter (JASCO International Co., Ltd., Tokyo, Japan). A quartz cell with a light path length of 1 mm was used for the measurements. The sample temperature was maintained at 25 °C during the measurements.
Supplementary Figure S4. Circular dichroism (CD) spectra of NCR169-ox1 and -ox2 under
various pH conditions. The signal reflectingβ-sheet structure (218 nm) was hardly changed.

The format of data set [2] is physicochemical. The procedure:
To confirm it, we examined the solubility of NCR169 in various solvents, HEPES (salt-free), HEPES with salt (50 to 200 mM NaCl or KCl), and PBS. […] In other words, the disulfide bonds of NCR169 contribute to its solubility.
Supplementary Figure S3. Solubility assessment of NCR169. The same amount of NCR169 was dissolved in various solvents. After incubation at room temperature for 1 h, the solution was centrifuged at 20,000 × g and the supernatant was analyzed by Tricine-SDS-PAGE. […]

Data set [3] can be described thus: Liposome sedimentation (binding) assay. The note with it: peptide 20 μM, 2 mM DMPC liposomes, 20 mM HEPES, 150 mM NaCl, pH 7.0, 30 min room temperature, 200,000×g, supernatant and pellet by Tricine-SDS-PAGE. How it is done:
(§1) Figure 3 NCR169 binds to the bacterial phospholipid. (A) Circular dichroism (CD) spectra of NCR169 peptides (NCR169-ox1 and -ox2). NCR169 peptides (20 μM) were dissolved in the following solvents: water (No additives), 2 mM DMPC liposomes, 2 mM DMPG liposomes or 30% 2,2,2-trifluoroethanol (TFE). (B) The results of liposome binding assays. The NCR169 peptide (20 μM) was incubated with buffer (No lipid), 2 mM DMPC liposomes, or 2 mM DMPG liposomes. After incubation at room temperature for 30 min, the mixture was ultra-centrifuged at 200,000×g. The supernatant and pellet fractions were analyzed by Tricine-SDS-PAGE. The no lipid sample before ultra-centrifugation was used as the input.
(§2) The phospholipids DMPC and DMPG were purchased from Avanti Polar Lipids (Alabaster, AL, USA). An appropriate amount of phospholipid was dissolved in chloroform and dried under vacuum for 1 h. The lipid film was suspended in water, vortexed, and sonicated for 30 min to form the liposomes.
The assay was carried out as described previously. Briefly, equal volumes of NCR169 peptide (20 μM) and liposomes (2 mM) were mixed in assay buffer (20 mM HEPES, 150 mM NaCl, pH 7.0) and incubated for 30 min at room temperature, followed by ultracentrifugation at 200,000×g for 15 min at 20 °C. […] The supernatant and pellet fractions were subjected to Tricine-SDS-PAGE, and peptides were detected by Coomassie Brilliant Blue staining.

The subject of data set [4] is Sinorhizobium meliloti. The data set is classed as cell-based. The note with it: for IC50: 2 h, pH 7; for IC100: S. meliloti, drop plate method, 2 h treatment at room temperature, 5 mM HEPES-KOH pH 7.0. How it is done:
(§3) Antimicrobial tests were performed using the drop plate method[12],[47]. Bacterial strains in the logarithmic phase (OD600 = 0.5–0.8) were diluted with 5 mM HEPES–KOH (pH 7.0) to a bacterial culture value of 1 × 10^6 CFU/mL. At OD600 = 0.1, the concentrations of S. meliloti and E. coli K-12 cells were 6.4 × 10^6 CFU/mL and 5.2 × 10^7 CFU/mL, respectively. Equal volumes of bacteria (S. meliloti or E. coli K-12) and NCR169 peptide or PMB were mixed and incubated at room temperature for 2 h. For antimicrobial tests against S. meliloti, 10 μL of each serially diluted mixture was spotted on MHB plates with 2.5 mM MgCl2, and 2.5 mM CaCl2, followed by incubation at 30 °C for 40 h. For antimicrobial tests against E. coli K-12, 10 μL of each mixture was spotted on Mueller Hinton Broth (MHB; MilliporeSigma, Burlington, MA, USA) plates followed by incubation at 30 °C for 13 h.
(§4) To estimate survival rate, the peptide-treated bacterial mixtures were serially diluted with the buffer before spotting on the plate. Bacterial survival rates were calculated using the colony numbers of each bacterial strain with or without peptide treatment. All experiments were repeated at least four times.
(§5) Supplementary Table S2. Antimicrobial activities of NCR169 peptides against E. coliK-12 and S. meliloti.
(§6) Peptide IC50 (μM)* IC100 (μM)
(§7) E. coli K-12 S. meliloti E. coli K-12 S. meliloti
(§8) IC50: 50% inhibitory concentration (Calculated using “Dose-response curve” fitting)

Data set [5] has as its system Escherichia coli K-12. The data set is classed as cell-based. The note with it: for IC100: E. coli K-12, drop plate method, 2 h treatment at room temperature, 5 mM HEPES-KOH pH 7.0; for IC50: K-12, 2 h, pH 7. The procedure: as §3, §4, §5, §6, §7, §8
A short description of data set [6]: Liposome sedimentation (binding) assay. The following applies: peptide 20 μM, 2 mM DMPG liposomes, 20 mM HEPES, 150 mM NaCl, pH 7.0, 30 min room temperature, 200,000×g, supernatant and pellet by Tricine-SDS-PAGE. The procedure: as §1, §2
The assay was carried out as described previously. Briefly, equal volumes of NCR169 peptide (20 μM) and liposomes (2 mM) were mixed in assay buffer (20 mM HEPES, 150 mM NaCl, pH 7.0) and incubated for 30 min at room temperature, followed by ultracentrifugation at 200,000×g for 15 min at 20 °C. After centrifugation, the supernatant was collected, and the pellet was dissolved in the same volume of assay buffer containing 0.2% Triton X-100. The supernatant and pellet fractions were subjected to Tricine-SDS-PAGE, and peptides were detected by Coomassie Brilliant Blue staining.
Supplementary Figure S11. NCR 169 M binds to the bacterial phospholipid. (A) Circular dichroism (CD) spectra of NCR169M (20 μM) in water (No additive), 2 mM dimyristoylphosphatidylcholine (DMPC) liposomes, 2 mM dimyristoylphosphatidylglycerol (DMPG) liposomes or 30% 2,2,2-trifluoroethanol (TFE). (B) The result of liposome binding assay. NCR169M (20 μM) was incubated with buffer (No lipid),2 mM DMPC liposomes, or 2 mM DMPG liposomes . After incubation at room temperature for 30 min, the mixture was ultra-centrifuged at 200,000 × g. The supernatant and pellet fractions were analyzed by Tricine-SDS-PAGE. The no lipidsample before ultra-centrifugation was used as the input.
(also on this page, place not known: [θ] (103 deg cm2 dmol-1) markerkDa input No lipid sup ppt sup ppt sup ppt NCR169M lipid), DMPC 2 DMPG liposomes. lipid sample)
(1 picture or pasted object on this page, not shown here)
Supplementary Figure S12. The results of liposome binding assays. (A) NCR169-derived peptide (10 μM) was incubated with buffer (No lipid), 1 mM DMPC liposomes, 1 mM DMPG liposomes. After incubation at room temperature for 30 min, the mixture was ultra-centrifuged at 200,000 × g. The supernatant and pellet fractions were analyzed by Tricine-SDS-PAGE. The no lipid sample before ultra-centrifugation was used as the input. Arrows indicate weak bands. (B) […]

Each structure is given as a SMILES string. Where a SMILES comes first, the peptide text is derived from it. Bridges are numbered along the chain shown (N, C = ends).

On to `CC[C@H](C)[C@@H]1NC(=O)CNC(=O)[C@@H](NC(=O)[C@H](Cc2ccc(O)cc2)NC(=O)[C@H](CCCCN)NC(=O)[C@@H](NC(=O)[C@H](Cc2c[nH]cn2)NC(=O)CNC(=O)[C@@H](NC(=O)[C@H](CC(=O)O)NC(=O)[C@H](CCC(=O)O)NC(=O)CN)[C@@H](C)CC)[C@@H](C)CC)CSSC[C@@H]2NC(=O)[C@H](CCCCN)NC(=O)[C@H](Cc3c[nH]c4ccccc34)NC(=O)[C@H]([C@@H](C)CC)NC(=O)[C@H](CCCCN)NC(=O)[C@H](Cc3ccccc3)NC(=O)[C@H](CC(C)C)NC(=O)[C@@H]3CCCN3C(=O)[C@H](CCCCN)NC(=O)[C@H](CCCCN)NC(=O)[C@H](CO)NC(=O)[C@H](CCCCN)NC(=O)[C@H](Cc3ccc(O)cc3)NC(=O)[C@H](CSSC[C@@H](C(=O)N[C@H](C(=O)N[C@@H](CC(C)C)C(=O)N[C@@H](Cc3c[nH]c4ccccc34)C(=O)N[C@@H](Cc3ccc(O)cc3)C(=O)N[C@@H](CCCCN)C(=O)O)C(C)C)NC(=O)[C@H](C(C)C)NC(=O)[C@H](CC(N)=O)NC(=O)[C@H](CCC(=O)O)NC(=O)[C@H](C(C)C)NC2=O)NC(=O)[C@H](CC(=O)O)NC(=O)[C@H](CC(=O)O)NC(=O)[C@H](C(C)C)NC1=O` [NCR169-ox2] (H-GEDIGHIKYCGIVDDCYKSKKPLFKIWKCVENVCVLWYK-OH; disulfide 10-29, 16-34), for which the “Structural stability against pH (CD spectra)” value in data set [1] was “retained their conformations under acidic and neutral conditions”. The “Solubility in various solvents” value in data set [2] is “soluble in all conditions”. Besides, the “Binding to DMPC liposomes” value in data set [3] was “Neither NCR169-ox1 nor -ox2 bound”. In data set [4], this compound yielded an IC50 of 9.8 µM and an IC100 of 128 µM. In data set [5], this compound registered an IC100 of 16 µM and an IC50 of 3.4 µM. For the same compound, the “Binding to DMPG liposomes” value in data set [6] is listed as “hardly binds”.
`CC[C@H](C)[C@@H]1NC(=O)CNC(=O)[C@@H](NC(=O)[C@H](Cc2ccc(O)cc2)NC(=O)[C@H](CCCCN)NC(=O)[C@@H](NC(=O)[C@H](Cc2c[nH]cn2)NC(=O)CNC(=O)[C@@H](NC(=O)[C@H](CC(=O)O)NC(=O)[C@H](CCC(=O)O)NC(=O)CN)[C@@H](C)CC)[C@@H](C)CC)CSSC[C@@H](C(=O)N[C@@H](Cc2ccc(O)cc2)C(=O)N[C@@H](CCCCN)C(=O)N[C@@H](CO)C(=O)N[C@@H](CCCCN)C(=O)N[C@@H](CCCCN)C(=O)N2CCC[C@H]2C(=O)N[C@@H](CC(C)C)C(=O)N[C@@H](Cc2ccccc2)C(=O)N[C@@H](CCCCN)C(=O)N[C@H](C(=O)N[C@@H](Cc2c[nH]c3ccccc23)C(=O)N[C@@H](CCCCN)C(=O)N[C@H]2CSSC[C@@H](C(=O)N[C@H](C(=O)N[C@@H](CC(C)C)C(=O)N[C@@H](Cc3c[nH]c4ccccc34)C(=O)N[C@@H](Cc3ccc(O)cc3)C(=O)N[C@@H](CCCCN)C(=O)O)C(C)C)NC(=O)[C@H](C(C)C)NC(=O)[C@H](CC(N)=O)NC(=O)[C@H](CCC(=O)O)NC(=O)[C@H](C(C)C)NC2=O)[C@@H](C)CC)NC(=O)[C@H](CC(=O)O)NC(=O)[C@H](CC(=O)O)NC(=O)[C@H](C(C)C)NC1=O` [NCR169-ox1] (H-GEDIGHIKYCGIVDDCYKSKKPLFKIWKCVENVCVLWYK-OH; disulfide 10-16, 29-34): the “Structural stability against pH (CD spectra)” value in data set [1] is “retained their conformations under acidic and neutral conditions”. For the same compound, the “Solubility in various solvents” value in data set [2] is given as “soluble in all conditions”. In data set [3], the “Binding to DMPC liposomes” value was “Neither NCR169-ox1 nor -ox2 bound”. In data set [4], this compound gave an IC50 of 6.4 µM and an IC100 of 128 µM. Further, in data set [5], the IC100 turned out to be 16 µM and the IC50 came out at 0.41 µM. In data set [6], the “Binding to DMPG liposomes” value is “bound to the DMPG liposomes”.
